US9540385B2, “Pyrrolopyrimidine compounds as kinase inhibitors” (Pharmacyclics LLC, priority 2012, dated 2017)

Experiments:
Format in all cases: biochemical
Settings in all cases: kinase assay by one of methods A, B or C
LCK = LCK (Homo sapiens, UniProt P06239); experiment: Inhibition of a panel of kinases: LCK
Experimental: (§1) Btk kinase activity is determined using a time-resolved fluorescence resonance energy transfer (TR-FRET) methodology. Measurements are performed in a reaction volume of 50 μL using 96-well assay plates. Kinase enzyme, inhibitor, ATP (at the Km for the kinase), and 1 μM peptide substrate (Biotin-AVLESEEELYSSARQ-NH2) are incubated in a reaction buffer composed of 20 mM Tris, 50 mM NaCl, MgCl2 (5-25 mM depending on the kinase), MnCl2 (0-10 mM), 1 mM DTT, 0.1 mM EDTA, 0.01% bovine serum albumin, 0.005% Tween-20, and 10% DMSO at pH 7.4 for one hour. The reaction is quenched by the addition of 1.2 equivalents of EDTA (relative to divalent cation) in 25 μL of 1× Lance buffer (Perkin-Elmer). Streptavidin-APC (Perkin-Elmer) and Eu-labeled p-Tyr100 antibody (Perkin-Elmer) in 1× Lance buffer are added in a 25 μL volume to give final concentrations of 100 nM and 2.5 nM, respectively, and the mixture is allowed to incubate for one hour. The TR-FRET signal is measured on a multimode plate reader with an excitation wavelength (λEx) of 330 nm and detection wavelengths (λEm) of 615 and 665 nm. Activity is determined by the ratio of the fluorescence at 665 nm to that at 615 nm. For each compound, enzyme activity is measured at various concentrations of compound. Negative control reactions are performed in the absence of inhibitor in replicates of six, and two no-enzyme controls are used to determine baseline fluorescence levels. Inhibition constants, Ki(app), ware obtained using the program BatchKi (Kuzmic et al. (2000), Anal. Biochem. 286:45-50). IC50s are obtained according to the equation: IC50={Ki(app)/(1+[ATP]/Km^ATP)}+[E]total/2;
(§2) For all kinases, [ATP]=Km^ATP, [Btk]total=0.5 nM and [Lck]total=6 nM.
(§3) Kinase activity is measured in vitro using electrophoretic mobility shift assay. The kinase reactions are assembled in a total volume of 25 μL in 384 well plates. The reactions comprise: BTK enzyme (1 nM, N-terminal His6-tagged, recombinant, full-length, human BTK purified from baculovirus Sf21 insect cell system), inhibitor, ATP ([…] the apparent Km for the kinase), fluorescently labeled peptide substrate (1 μM, FAM-GEEPLYWSFPAKKK-NH2) in a reaction buffer composed of 100 mM HEPES, pH7.5, 5 mM MgCl2 1 mM DTT, 0.1% bovine serum albumin, 0.01% Triton X-100, and 1% DMSO. The reaction is incubated for one hour and is quenched by the addition of 45 μL of termination buffer (100 mM HEPES, pH7.5, 0.01% Triton X-100, 30 mM EDTA). The terminated reactions are analyzed using 12 channel LabChip® 3000 microfluidic detection instrument (Caliper Life Sciences). The enzymatic phosphorylation of the peptide results in a change in net charge, enabling electrophoretic separation of product from substrate peptide. As substrate and product peptides are separated, two peaks of fluorescence are observed. Change in the relative fluorescence intensity of the substrate and product peaks is the parameter measured, reflecting enzyme activity. In the presence of an inhibitor, the ratio between product and substrate is altered: the signal of the product decreases, while the signal of the substrate increases.
(§4) Activity in each sample is determined as the product to sum ratio (PSR):P/(S+P), where P is the peak height of the product peptide and S is the peak height of the substrate peptide. For each compound, enzyme activity is measured at various concentrations (12 concentrations of compound spaced by 3× dilution intervals). Negative control samples (0%-inhibition in the absence of inhibitor) and positive control samples (100%-inhibition, in the presence of 20 mM EDTA) are assembled in replicates of four and are used to calculate %-inhibition values for each inhibitor at each concentration. Percent inhibition (Pinh) is determined using following equation: […]

EGFR = EGFR (Homo sapiens, UniProt P00533); experiment: Inhibition of a panel of kinases: EGFR
Chain of EGFR (P00533 25-1210, species assumed): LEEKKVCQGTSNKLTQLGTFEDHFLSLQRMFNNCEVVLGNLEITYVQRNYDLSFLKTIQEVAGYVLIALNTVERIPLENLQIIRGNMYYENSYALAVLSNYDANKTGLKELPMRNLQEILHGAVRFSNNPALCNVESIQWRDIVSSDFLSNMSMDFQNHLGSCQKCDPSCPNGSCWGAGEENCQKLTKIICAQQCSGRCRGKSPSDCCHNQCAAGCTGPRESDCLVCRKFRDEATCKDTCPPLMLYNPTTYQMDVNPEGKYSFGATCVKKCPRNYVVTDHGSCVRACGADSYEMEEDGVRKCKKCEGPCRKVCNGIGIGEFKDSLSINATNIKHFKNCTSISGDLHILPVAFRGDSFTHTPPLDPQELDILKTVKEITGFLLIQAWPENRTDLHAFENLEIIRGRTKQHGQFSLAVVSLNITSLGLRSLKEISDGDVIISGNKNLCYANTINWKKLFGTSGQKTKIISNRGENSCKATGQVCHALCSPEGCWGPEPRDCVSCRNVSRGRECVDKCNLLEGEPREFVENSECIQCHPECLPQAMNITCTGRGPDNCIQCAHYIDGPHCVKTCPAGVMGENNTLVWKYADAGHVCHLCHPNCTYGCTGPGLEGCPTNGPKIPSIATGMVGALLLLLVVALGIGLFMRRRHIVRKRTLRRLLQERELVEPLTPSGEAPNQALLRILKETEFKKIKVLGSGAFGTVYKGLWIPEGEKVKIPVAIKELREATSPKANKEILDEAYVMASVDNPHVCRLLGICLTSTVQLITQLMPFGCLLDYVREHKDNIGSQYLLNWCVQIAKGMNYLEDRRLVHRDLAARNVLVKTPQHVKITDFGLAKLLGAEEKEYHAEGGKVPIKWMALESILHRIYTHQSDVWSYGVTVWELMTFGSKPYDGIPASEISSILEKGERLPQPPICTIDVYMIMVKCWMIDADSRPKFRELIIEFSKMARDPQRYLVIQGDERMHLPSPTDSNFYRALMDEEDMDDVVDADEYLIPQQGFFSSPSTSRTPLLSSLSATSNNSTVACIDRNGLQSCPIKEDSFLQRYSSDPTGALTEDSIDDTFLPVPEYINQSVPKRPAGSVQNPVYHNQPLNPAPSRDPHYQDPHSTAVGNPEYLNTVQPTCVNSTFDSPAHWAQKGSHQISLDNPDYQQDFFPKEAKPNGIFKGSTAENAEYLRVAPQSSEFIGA
Experimental: as §1, §2, §3, §4

BTK = target: T1, BTK (Homo sapiens, UniProt Q06187); experiment: Btk in vitro inhibitory activity / inhibition of a panel of kinases (TR-FRET, mobility shift or radiometric filter binding)
T1 construct: purified from insect cells as a full-length construct containing a N-terminal 6×-His tag; His6 (N); made in house; host or cells: insect cells (baculovirus, Sf21)
T1 sequence (Q06187 whole entry): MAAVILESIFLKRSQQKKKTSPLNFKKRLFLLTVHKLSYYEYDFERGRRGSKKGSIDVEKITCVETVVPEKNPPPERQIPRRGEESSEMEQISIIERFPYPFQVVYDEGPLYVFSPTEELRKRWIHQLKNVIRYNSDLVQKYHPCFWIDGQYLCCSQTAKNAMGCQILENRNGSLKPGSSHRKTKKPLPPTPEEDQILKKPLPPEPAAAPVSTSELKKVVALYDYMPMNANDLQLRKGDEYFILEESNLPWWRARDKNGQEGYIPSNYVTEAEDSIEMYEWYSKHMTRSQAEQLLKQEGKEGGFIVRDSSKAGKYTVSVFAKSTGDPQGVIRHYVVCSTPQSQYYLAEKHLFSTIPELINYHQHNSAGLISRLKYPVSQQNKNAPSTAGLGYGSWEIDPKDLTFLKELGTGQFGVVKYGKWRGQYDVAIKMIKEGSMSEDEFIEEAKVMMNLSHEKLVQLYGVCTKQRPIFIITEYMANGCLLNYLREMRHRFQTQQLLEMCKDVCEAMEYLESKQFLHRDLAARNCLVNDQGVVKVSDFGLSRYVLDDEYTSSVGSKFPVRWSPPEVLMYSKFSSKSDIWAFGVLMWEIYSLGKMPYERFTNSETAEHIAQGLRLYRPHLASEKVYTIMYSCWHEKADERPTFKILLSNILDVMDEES

Chain of LCK (P06239 whole entry, species assumed): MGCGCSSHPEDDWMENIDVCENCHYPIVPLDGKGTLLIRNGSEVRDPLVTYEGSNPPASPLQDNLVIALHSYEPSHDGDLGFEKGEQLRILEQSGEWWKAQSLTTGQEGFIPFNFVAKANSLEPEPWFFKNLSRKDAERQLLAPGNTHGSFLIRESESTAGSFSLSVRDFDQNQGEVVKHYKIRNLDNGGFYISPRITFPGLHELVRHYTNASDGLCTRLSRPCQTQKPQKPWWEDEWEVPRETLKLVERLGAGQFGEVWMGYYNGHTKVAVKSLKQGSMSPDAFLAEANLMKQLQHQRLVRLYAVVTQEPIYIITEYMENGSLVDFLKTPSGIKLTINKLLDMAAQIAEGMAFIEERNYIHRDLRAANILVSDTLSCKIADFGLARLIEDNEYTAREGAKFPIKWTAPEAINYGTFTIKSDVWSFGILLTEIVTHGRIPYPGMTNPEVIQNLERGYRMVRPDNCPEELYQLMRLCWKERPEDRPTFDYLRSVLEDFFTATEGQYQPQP

SMILES | IC50 (LCK) [nM] | IC50 (EGFR) [nM] | IC50 (BTK) [nM]
CN(C/C=C/C(=O)N1CC[C@@H](n2c(F)c(-c3ccc(Oc4ccccc4)cc3)c3c(N)ncnc32)C1)C1CC1 [Compound 5, (R,E)-1-(3-(4-amino-6-fluoro-5-(4-phenoxyphenyl)-7H-pyrrolo[2,3-d]pyrimidin-7-yl)pyrrolidin-1-yl)-4-(cyclopropyl(methyl)amino)but-2-en-1-one] | < 100 | 1000 to 10000 | < 100
CN(C(=O)/C=C/CN(C)C1CC1)c1cccc(-n2c(Cl)c(-c3ccc(Cl)cc3)c3c(N)ncnc32)c1 [Compound 23, (E)-N-(3-(4-amino-6-chloro-5-(4-chlorophenyl)-7H-pyrrolo[2,3-d]pyrimidin-7-yl)phenyl)-4-(cyclopropyl(methyl)amino)-N-methylbut-2-enamide] | 1000 to 10000 | 1000 to 10000 | < 100
COc1cc(-c2c(Cl)n(-c3cccc(N(C)C(=O)/C=C/CN(C)C4CC4)c3)c3ncnc(N)c23)ccc1C [Compound 36, (E)-N-(3-(4-amino-6-chloro-5-(3-methoxy-4-methylphenyl)-7H-pyrrolo[2,3-d]pyrimidin-7-yl)phenyl)-4-(cyclopropyl(methyl)amino)-N-methylbut-2-enamide] | 1000 to 10000 | 1000 to 10000 | < 100

The next lines start with the values.

IC50 (LCK) [nM] | IC50 (EGFR) [nM] | IC50 (BTK) [nM] | SMILES
< 100 | 1000 to 10000 | < 100 | Cc1c(-c2ccc(Oc3ccccc3)cc2)c2c(N)ncnc2n1[C@@H]1CCN(C(=O)/C=C/CN(C)C)C1 [Compound 15, (R,E)-1-(3-(4-amino-6-methyl-5-(4-phenoxyphenyl)-7H-pyrrolo[2,3-d]pyrimidin-7-yl)pyrrolidin-1-yl)-4-(dimethylamino)but-2-en-1-one]
100 to 1000 | < 100 | < 100 | C=CC(=O)N1CC[C@@H](n2c(Cl)c(-c3ccc(Cl)cc3)c3c(N)ncnc32)C1 [Compound 39, (R)-1-(3-(4-amino-6-chloro-5-(4-chlorophenyl)-7H-pyrrolo[2,3-d]pyrimidin-7-yl)pyrrolidin-1-yl)prop-2-en-1-one]
100 to 1000 | 100 to 1000 | < 100 | CN(C)C/C=C/C(=O)N1CC[C@@H](n2c(Cl)c(-c3ccc(Cl)cc3)c3c(N)ncnc32)C1 [Compound 40, (R,E)-1-(3-(4-amino-6-chloro-5-(4-chlorophenyl)-7H-pyrrolo[2,3-d]pyrimidin-7-yl)pyrrolidin-1-yl)-4-(dimethylamino)but-2-en-1-one]
